{"source": "patent US20240382508A1", "about": "“REGENERATIVE AGENT FOR BONE TISSUE AND LUNG TISSUE, AND PHARMACEUTICAL COMPOSITION FOR REGENERATING BONE TISSUE AND LUNG TISSUE” (NIIGATA UNIVERSITY, priority 2021, published 2024)", "key": {"[1]": {"test_system": "rheumatoid arthritis model mice", "assay": "rheumatoid arthritis (CAIA) model, microCT of hind limb", "assay_type": "in vivo, mouse", "protocol": "Rheumatoid arthritis (CAIA) (a collagen antibody-administered arthritis-inducing cocktail manufactured by Chondrex, Inc. was used, and the details of the production method were performed according to the protocol provided by Iwai Chemicals Co., Ltd.) was induced by using 6-week-old wild-type mice (N=4, male C57BL/6N mice, manufactured by CLEA Japan, Inc.) and 6-week-old DEL-1-deficient mice (N=4, male C57BL/6N mice (manufactured by CLEA Japan, Inc.), the method for producing the deficient mice was as described in Non Patent Document 1), and erythromycin (10 mg/kg) was intraperitoneally administered once every 3 days from the 1st day after the induction. Regarding the DEL-1-deficient mice, a group in which DEL-1 (10 μg) was administered through the tail vein once every 3 days from the 1st day after the CAIA induction, was also prepared. Nine days after the administration, the hind limb of each mouse was examined by microCT."}, "[2]": {"test_system": "RUNX2 mRNA, Sp7 mRNA, and Bglap mRNA", "assay": "RT-PCR of bone regeneration genes in osteoblasts", "assay_type": "cell-based, mouse", "conditions": "osteoblasts derived from wild-type mice", "protocol": "Next, the proportion (%) of bone nodules with respect to the observation region in the above-described osteoblasts was calculated from microscopic images by using image processing software (NIH Image). In addition, RNA was extracted from each of the osteoblasts by using an RNeasy Kit (manufactured by QIAGEN NV), subsequently cDNA was synthesized by using a cDNA synthesis kit (manufactured by Thermo Fisher Scientific, Inc.), and the relative expression levels of RUNX2 mRNA, Sp7 mRNA, and Bglap mRNA, which are important for bone regeneration, were checked by an RT-PCR method (Quantstudio3, Thermo Fisher Scientific, Inc.). Regarding primers, designed primers manufactured by Thermo Fisher Scientific, Inc. were used. The Assay IDs of the primers used are shown below."}, "[3]": {"test_system": "acute lung disorder mice", "assay": "LPS-induced acute lung disorder, HE staining of lung tissue", "assay_type": "in vivo, mouse", "conditions": "10 mg/kg intraperitoneally once a day for two weeks", "protocol": "Acute lung disorder was induced by administering lipopolysaccharide (LPS) to the tracheae and bronchi of mice (the details of a production method were as described in Non Patent Document 1). Erythromycin (10 mg/kg) was administered to 6-week-old wild-type mice (N=4, male C57BL/6N mice, manufactured by CLEA Japan, Inc.) and 6-week-old DEL-1-deficient mice (N=4, male C57BL/6N mice (manufactured by CLEA Japan, Inc.), a method for producing the deficient mice was as described in Non-Patent Document 1), by intraperitoneal administration once a day for a total of two weeks. After the administration, the lungs were extracted from each mouse and fixed, and then slice preparations were produced. Next, hematoxylin and eosin (HE) staining was performed. Observation images (magnifications: 10 times and 200 times) obtained with a microscope (manufactured by Nikon Corporation, ECLIPSE Ni-E) are shown in FIG. 7A to 7C."}, "[4]": {"test_system": "bone defects in the jawbones", "assay": "jawbone defect regeneration in cynomolgus monkeys (microCT)", "assay_type": "in vivo", "conditions": "200 μg at bone defect site, one month", "protocol": "Bone defects with a diameter of 2 cm and a depth of 2 cm were artificially produced in the jawbones of young (2 years old) and aged (10 years old) cynomolgus monkeys by using a round steel bar. Next, 200 μg of each of erythromycin, clarithromycin, and azithromycin were added to the bone defect sites. As controls, a non-administered group and a group administered with 200 μg of REGROTH (registered trademark), which has been approved as a bone regenerative agent, were also prepared. The amount of bone regeneration after one month from the administration of each drug was checked by using microCT. In FIG. 10, the symbol * indicates p<0.01."}, "[5]": {"test_system": "α-SMA-positive mesenchymal stem cells", "assay": "immunofluorescence staining of periodontal tissue of experimental periodontitis mice", "assay_type": "in vivo, mouse", "conditions": "wild-type mice; jawbone slices", "protocol": "Next, jawbones of the wild-type mice to which erythromycin had or had not been administered were extracted and fixed, and then slice preparations were produced. Next, immunofluorescence staining was performed by using an anti-α-SMA antibody (manufactured by Abcam, Ltd.) fluorescently labeled with Alexa Fluor (registered trademark) 488 (manufactured by Thermo Fisher Scientific, Inc.), an anti-CD31/PECAM-1 antibody (manufactured by Thermo Fisher Scientific, Inc.) fluorescently labeled with Alexa Fluor (registered trademark) 647 (manufactured by Thermo Fisher Scientific, Inc.), and an anti-Ki67 antibody (manufactured by R&D Systems, Inc.) fluorescently labeled with Alexa Fluor (registered trademark) 594 (manufactured by Thermo Fisher Scientific, Inc.). Observation images (magnification: 200 times) obtained with a fluorescence microscope (ECLIPSE Ni-E, manufactured by Nikon Corporation) are shown in FIG. 5."}}, "data": [{"compound": "CC[C@H]1OC(=O)[C@H](C)[C@@H](O[C@H]2C[C@@](C)(OC)[C@@H](O)[C@H](C)O2)[C@H](C)[C@@H](O[C@@H]2O[C@H](C)C[C@H](N(C)C)[C@H]2O)[C@](C)(O)C[C@@H](C)C(=O)[C@H](C)[C@@H](O)[C@]1(C)O", "note": "[erythromycin]", "values": [{"measurement": "bone destruction (FIG. 6)", "setting": "[1]; DEL-1-deficient mice, erythromycin 10 mg/kg intraperitoneally or DEL-1 10 μg tail vein once every 3 days", "result": "bone destruction was not suppressed"}, {"measurement": "bone destruction (FIG. 6)", "setting": "[1]; wild-type mice, erythromycin 10 mg/kg intraperitoneally once every 3 days", "result": "bone destruction was suppressed"}, {"measurement": "expression of Bglap mRNA", "setting": "[2]", "result": "increases in the expression"}, {"measurement": "expression of RUNX2 mRNA", "setting": "[2]", "result": "increases in the expression"}, {"measurement": "expression of Sp7 mRNA", "setting": "[2]", "result": "increases in the expression"}, {"measurement": "tissue repair and restructuring of the alveolar structure (FIG. 7C)", "setting": "[3]; DEL-1-deficient mouse", "result": "normal tissue repair and restructuring of the alveolar structure were not recognized"}, {"measurement": "tissue repair and restructuring of the alveolar structure (FIG. 7B)", "setting": "[3]; wild-type mouse", "result": "normal tissue repair and restructuring of the alveolar structure were recognized"}, {"measurement": "bone regeneration effect (FIG. 10)", "setting": "[4]; aged (10 years old) cynomolgus monkeys", "result": "a bone regeneration effect was recognized"}, {"measurement": "bone regeneration effect (FIG. 10)", "setting": "[4]; young (2 years old) cynomolgus monkeys", "result": "a bone regeneration effect was recognized"}, {"measurement": "proportion of α-SMA-positive mesenchymal stem cells (FIG. 5)", "setting": "[5]", "result": "the proportion of α-SMA-positive mesenchymal stem cells was increased"}]}]}
